# According to article PMC2690590, “Functional recombinant MHC class II molecules and high-throughput peptide-binding assays” (Immunome Research, 2009):
# Where two headings read alike, the source gives them in different places. Where no end group is shown, it is not given here.
# Experiments:
# DR1 [1] = target: T1, DR1 (Homo sapiens, UniProt P01903+P01911, A100R/D57E/F55L/F60I/F76Y/I96L/L162R/M171V/P40L/Q125E/R42F/V115G/Y59C); assay: Effects of additives on the refolding of DR1, spun column assay; type: biochemical; details: for Harmfull (to DR1 refolding): additive titrated in refolding buffer pH 8 without glycerol, 3 nM 125I YHA306-318, 80 nM DR1 α and β chains
# [2] = target: T2, DR2a (DRA*0101/DRB5*0101) (Homo sapiens, UniProt P01903+Q30154); assay: Competitive LOCI peptide-MHC-II binding assay, DR2a
# T2 construct: DRA*01011-181LZFos; DRB5*01011-190LZJunBSP; made in house
# [3] = target: T3, DRB1*0813 (DRA*0101/DRB1*0813) (Homo sapiens, UniProt P01903+P01911, A100R/A103L/A169T/F76Y/H45Y/I96L/K41T/L162R/M171V/P40S/Q125H/Q178H/Q39Y/Q99D/R218S/R42G/S66Y/V115G/W38E); assay: Direct LOCI peptide-MHC-II binding assay, DRB1*0813
# T3 construct: DRA*01011-181LZFos; DRB1*08131-190LZJunBSP; made in house
# DR4 (DRA*0101/DRB1*0401) = target: T4, DR4 (DRA*0101/DRB1*0401) (Homo sapiens, UniProt P01903+P01911, A100K/A169T/F76Y/I96L/K127E/L162R/M171V/N62H/P40V/Q125Y/R42H/S133A/S149N/S66Y/V115G/V209L/W38E); assay: Direct LOCI peptide-MHC-II binding assay, DR4
# T4 construct: DRA*01011-181LZFos; DRB1*04011-190LZJunBSP; made in house
# [4] = target: T5, DRB3*0301 (DRA*0101/DRB3*0301) (Homo sapiens, UniProt P01903+P79483, A169T/A212P/D57E/G115V/L67V/Q178H/R103Q/R40L/Y55F); assay: Direct LOCI peptide-MHC-II binding assay, DRB3*0301
# T5 construct: DRA*01011-181LZFos; DRB3*03011-190LZJunBSP; made in house
# DR4 = target: T6, DR4 (Homo sapiens, UniProt P01903+P01911); assay: ELISA-based peptide-MHC class II binding assay, DR4
# T6 construct: made in house
# DR1 (DRA*0101/DRB1*0101) = DR1 (DRA*0101/DRB1*0101) (Homo sapiens, UniProt P01903+P01911, A100R/D57E/F55L/F60I/F76Y/I96L/L162R/M171V/P40L/Q125E/R42F/V115G/Y59C); assay: Competitive peptide-HLA-DR1 binding assay, radioactive spun column
# DR2 (DR2a) = target: T7, DR2 (DR2a) (Homo sapiens, UniProt P01903+Q30154); assay: ELISA-based peptide-MHC class II binding assay, DR2
# T7 construct: DR2a: DRA*0101_1–181/DRB5*0101_1–190; made in house
# [5] = target: T2, DR2a (DRA*0101/DRB5*0101); assay: Direct LOCI peptide-MHC-II binding assay, DR2a
# [6] = target: DP401 (DPA1*0103/DPB1*0401) (Homo sapiens, UniProt P04440+P20036); assay: Direct LOCI peptide-MHC-II binding assay, DP401
# DR3 (DRA*0101/DRB1*0301) = target: T8, DR3 (DRA*0101/DRB1*0301) (Homo sapiens, UniProt P01903+P01911, A100K/A102G/A103R/A169T/F55Y/I96L/K41T/L162R/M171V/P40S/Q125H/Q178H/Q39Y/R42S/S66N/T106N/T262R/W38E/Y61H); assay: Direct LOCI peptide-MHC-II binding assay, DR3
# T8 construct: DRA*01011-181LZFos; DRB1*03011-190LZJunBSP; made in house
# I-E^d = target: T9, I-E^d (Mus musculus, UniProt P01904+P01915); assay: Direct LOCI peptide-MHC-II binding assay, I-E^d
# T9 construct: I-E^dA1-191LZFos; I-E^dB1-198LZJunBSP; made in house
# DR1 [7] = target: T1, DR1; assay: biochemical; type: binding
# [8] = refolding buffer pH 8 without glycerol, 3 nM 125I YHA306-318, 80 nM DR1
# [9] = pH 6-7.5, 48 h 18°C, read-out: DR2a Komp IC50
# [10] = pH 6-7.5, 48 h 18°C, read-out: DRB1*0813 affinity
# [11] = pH 6-7.5, 48 h 18°C, read-out: DR4 affinity
# [12] = pH 7, 48 h 18°C, read-out: DRB3*0301 affinity
# [13] = 48 h 18°C, read-out: I-E^D affinity
# [14] = pH 6, 48 h 18°C, read-out: DR2a pH6 affinity
# [15] = pH 7, 48 h 18°C, read-out: DP401 affinity
# [16] = pH 6-7, 48 h 18°C, read-out: DR3 affinity
compound,measurement,setting,value
CCC(C)O (stereo not drawn) [2-Butanol],Harmfull (to DR1 refolding),DR1 [1],Yes
same,additive concentration at 50 % signal reduction,DR1 [1]; [8],2.5 Vol %
CCCCCCCCO[C@@H]1O[C@H](CO)[C@@H](O)[C@H](O)[C@H]1O [Beta octyl glucoside],Harmfull (to DR1 refolding),DR1 [1],No
same,Ok up to,DR1 [1]; [8],Ok up to 0.5 w/w %
CSCC[C@H](NC(=O)[C@@H]1CCCN1C(=O)[C@H](CC(C)C)NC(=O)[C@H](C)NC(=O)[C@H](CCC(N)=O)NC(=O)[C@H](CCSC)NC(=O)[C@H](CC(C)C)NC(=O)[C@H](CC(C)C)NC(=O)[C@@H]1CCCN1C(=O)[C@@H](NC(=O)[C@H](C)NC(=O)[C@H](CCSC)NC(=O)[C@H](CCCNC(=N)N)NC(=O)[C@H](CCSC)NC(=O)[C@H](CCCCN)NC(=O)[C@H](CO)NC(=O)[C@@H](NC(=O)[C@@H]1CCCN1C(=O)[C@H](CCCCN)NC(=O)[C@@H]1CCCN1C(=O)[C@@H]1CCCN1C(=O)[C@H](CCCCN)NC(=O)[C@@H]1CCCN1C(=O)[C@H](CC(C)C)NC(=O)[C@@H](N)Cc1ccc(O)cc1)C(C)C)[C@@H](C)O)C(=O)O [CLIP],IC50,"[2]; competitive LOCI, 4 nM biotin-PEG-HA306–318 agonist, β chain without biotin, α/β 13/5 nM, pH 6-7.5, L243, 48 h 18°C, average of 2–4 measurements, read-out: DR2a Komp IC50",1 nM
same,Kd,[3]; read-out: DRB1*0813 affinity,2 nM
same,Kd,DR4 (DRA*0101/DRB1*0401); read-out: DR4 affinity,2 nM
same,Kd,[4]; read-out: DRB3*0301 affinity,1 nM
same,EC50,"DR4; ELISA, L243 detection, α/β 31 and 1 nM, refolding buffer pH 8, 24 h 18°C, peptide concentration in nM per legend, read-out: EC50 DR4",9.7 nM
same,IC50,"DR1 (DRA*0101/DRB1*0101); competition with 3 nM 125I labelled (Y)HA306–318, 80 nM DR1 α and β chain, 24 h, spun column, some ligand depletion expected, read-out: IC50",40 nM
same,EC50,"DR2 (DR2a); ELISA, L243 detection, α/β 31 and 1 nM, refolding buffer pH 8, 24 h 18°C, peptide concentration in nM per legend, read-out: EC50 DR2",0.7 nM
same,Kd,[5]; read-out: DR2a pH6 affinity,1 nM
same,Kd,[6]; read-out: DP401 affinity,4 nM
same,Kd,DR3 (DRA*0101/DRB1*0301); read-out: DR3 affinity,1 nM
"C[C@H](CCC(=O)O)[C@H]1CC[C@H]2[C@@H]3CC[C@@H]4C[C@H](O)CC[C@]4(C)[C@H]3C[C@H](O)[C@]12C [DOC, Deoxycholate]",Harmfull (to DR1 refolding),DR1 [1],Yes/No
same,Positive effect up to (harmful at higher concentrations),DR1 [1]; [8],Positive effect up to 0.02 % Harmfull at higher concentrations
OCC(O)CO [Glycerol],Harmfull (to DR1 refolding),DR1 [1],No
same,effect on DR1 refolding (in words),"DR1 [1]; refolding buffer pH 8, 3 nM 125I YHA306-318, 80 nM DR1",Enhances folding in whole range tested
CC(C)O [Isopropanol],Harmfull (to DR1 refolding),DR1 [1],Yes
same,additive concentration at 50 % signal reduction,DR1 [1]; [8],5 Vol %
CCCCCCCCCCCC(=O)N(C)CC(=O)O [N-Laurylsarcosin],Harmfull (to DR1 refolding),DR1 [1],Yes
same,additive concentration at 50 % signal reduction,DR1 [1]; [8],0.01 Vol %
"[Cl-].[Na+] [NaCl, Sodium Chloride]",Harmfull (to DR1 refolding),DR1 [1],Yes
same,additive concentration at 50 % signal reduction,DR1 [1]; [8],100 mM
NC(N)=O [Urea],Harmfull (to DR1 refolding),DR1 [1],Yes/No
same,Ok up to (harmful at higher concentrations),DR1 [1]; [8],Ok up to 400 mM. Harmfull at higher concentrations
"Oc1ccc(Cl)cc1 [parachlorophenol (pCP), parachlorophenol]",Harmfull (to DR1 refolding),DR1 [1],Yes
same,additive concentration at 50 % signal reduction,DR1 [1]; [8],4 mM
IQMLKNGKKIPKVEMS [Murine β2m],IC50,[2]; DR2a Komp IC50 (nM),3 nM
same,Kd,[3],73 nM
same,Kd,DR4 (DRA*0101/DRB1*0401); DR4 affinity (nM),> 5000 nM
same,Kd,[4],70 nM
same,Kd,I-E^d; I-E^D affinity (nM),117 nM
same,Kd,[5],6 nM
same,Kd,[6]; DP401 affinity (nM),> 5000 nM
same,Kd,DR3 (DRA*0101/DRB1*0301),21 nM
PIVQNIQGQMVHQ [HIV],IC50,[2]; DR2a Komp IC50 (nM),852 nM
same,Kd,[3],> 5000 nM
same,Kd,DR4 (DRA*0101/DRB1*0401); DR4 affinity (nM),> 5000 nM
same,Kd,[4],23 nM
same,Kd,I-E^d; I-E^D affinity (nM),> 5000 nM
same,Kd,[5],447 nM
same,Kd,[6]; DP401 affinity (nM),> 5000 nM
same,Kd,DR3 (DRA*0101/DRB1*0301),471 nM
PLKAEIAQRLEDV [Influenza],IC50,[2],41 nM
same,Kd,[3],> 5000 nM
same,Kd,DR4 (DRA*0101/DRB1*0401),2680 nM
same,Kd,[4],11 nM
same,Kd,I-E^d,> 5000 nM
same,Kd,[5],65 nM
same,Kd,[6],2090 nM
same,Kd,DR3 (DRA*0101/DRB1*0301),134 nM
RMIAISAKV [Pox.o42.con.im. A2],IC50,[2]; [9],1990 nM
same,Kd,[3]; [10],267 nM
same,Kd,DR4 (DRA*0101/DRB1*0401); [11],> 5000 nM
same,Kd,[4]; [12],1260 nM
same,Kd,I-E^d; [13],> 5000 nM
same,Kd,[5]; [14],1650 nM
same,Kd,[6]; [15],> 5000 nM
same,Kd,DR3 (DRA*0101/DRB1*0301); [16],516 nM
YILLKKILSSRFNQM [Plasmodium Falciparum],IC50,[2]; DR2a Komp IC50 (nM),2 nM
same,IC50,"[2]; IC50, DR2a inhibition assay",0.6 nM
same,Kd,[3],4 nM
same,Kd,DR4 (DRA*0101/DRB1*0401); DR4 affinity (nM),94 nM
same,Kd,"DR4 (DRA*0101/DRB1*0401); KD, DR4",133 nM
same,Kd,[4],1 nM
same,Kd,I-E^d; I-E^D affinity (nM),20 nM
same,Kd,"I-E^d; KD, I-E^d",14 nM
same,Kd,[5],4 nM
same,Kd,[6]; DP401 affinity (nM),1 nM
same,Kd,"[6]; KD, DP401",0.8 nM
same,Kd,DR3 (DRA*0101/DRB1*0301),32 nM
YKYVKQNTLKLAT [HA306-318],IC50,[2]; [9],2 nM
same,Kd,[3]; [10],11 nM
same,Kd,DR4 (DRA*0101/DRB1*0401); [11],8 nM
same,Kd,[4]; [12],4 nM
same,EC50,DR4,43.1 nM
same,IC50,DR1 (DRA*0101/DRB1*0101),34 nM
same,Kd,I-E^d; [13],25 nM
same,EC50,DR2 (DR2a),1.2 nM
same,Kd,[5]; [14],10 nM
same,Kd,[6]; [15],> 5000 nM
same,EC50,DR1 [7],2.2 nM
same,Kd,DR3 (DRA*0101/DRB1*0301); [16],13 nM
